Measurements published in patent publication US12233070B2, “Methods for treating benzodiazepine misuse/use disorder” (University of M[…] Center, priority 2020, dated 2025).

What was measured:
[1] = parameters: key to Pharmacokinetics: “poor” - low bioavailability and/or short half-life; “good” - potent with long half-life; settings: in vivo; cited from earlier work
[2] = molecular target: α5 subunit-containing GABAA receptors (Homo sapiens, UniProt P18507+P31644); parameters: key to Subtype α5: act as partial positive modulators for particular subtype combinations; none: zero efficacy (i.e., antagonism) at other subtypes; settings: cited from earlier work
Chain of α5 subunit-containing GABAA receptors (P31644 32-462): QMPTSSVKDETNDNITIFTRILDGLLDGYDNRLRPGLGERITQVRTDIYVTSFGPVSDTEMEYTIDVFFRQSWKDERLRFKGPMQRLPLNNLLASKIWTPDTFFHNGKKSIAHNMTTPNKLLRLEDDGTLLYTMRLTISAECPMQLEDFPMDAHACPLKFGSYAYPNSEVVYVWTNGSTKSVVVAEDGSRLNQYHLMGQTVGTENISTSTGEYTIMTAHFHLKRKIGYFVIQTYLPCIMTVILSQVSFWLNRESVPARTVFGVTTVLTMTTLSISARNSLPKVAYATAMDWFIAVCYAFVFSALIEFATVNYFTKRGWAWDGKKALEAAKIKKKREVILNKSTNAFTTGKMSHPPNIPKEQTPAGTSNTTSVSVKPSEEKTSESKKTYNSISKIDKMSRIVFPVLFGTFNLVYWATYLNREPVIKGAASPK
Chain of α5 subunit-containing GABAA receptors (P18507 40-475): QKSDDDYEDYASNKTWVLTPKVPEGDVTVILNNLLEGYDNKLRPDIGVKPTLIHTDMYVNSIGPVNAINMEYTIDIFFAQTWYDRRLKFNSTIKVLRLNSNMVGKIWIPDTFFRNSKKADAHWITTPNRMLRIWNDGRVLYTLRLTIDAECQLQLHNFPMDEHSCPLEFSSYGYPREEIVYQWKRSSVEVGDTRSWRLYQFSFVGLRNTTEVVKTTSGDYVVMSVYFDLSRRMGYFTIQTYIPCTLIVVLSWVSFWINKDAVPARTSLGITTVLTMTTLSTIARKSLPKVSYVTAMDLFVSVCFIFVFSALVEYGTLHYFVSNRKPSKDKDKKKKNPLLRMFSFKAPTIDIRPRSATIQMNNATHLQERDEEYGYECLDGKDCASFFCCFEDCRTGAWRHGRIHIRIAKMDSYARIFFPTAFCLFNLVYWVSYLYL
Chain of α5 subunit-containing GABAA receptors (P28472 26-473 partner): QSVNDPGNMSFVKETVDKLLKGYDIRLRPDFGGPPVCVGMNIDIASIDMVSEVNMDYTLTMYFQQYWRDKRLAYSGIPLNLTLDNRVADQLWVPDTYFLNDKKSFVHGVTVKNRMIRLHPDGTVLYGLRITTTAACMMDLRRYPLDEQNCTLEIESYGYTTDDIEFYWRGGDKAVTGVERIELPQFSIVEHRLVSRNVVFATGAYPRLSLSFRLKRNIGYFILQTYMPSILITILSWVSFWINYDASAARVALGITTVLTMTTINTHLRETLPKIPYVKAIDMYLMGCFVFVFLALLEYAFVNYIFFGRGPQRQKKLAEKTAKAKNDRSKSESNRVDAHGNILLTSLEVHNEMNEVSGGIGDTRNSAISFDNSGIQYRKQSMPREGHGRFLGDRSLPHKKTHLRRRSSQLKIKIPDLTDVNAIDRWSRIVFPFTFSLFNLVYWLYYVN

[3] = molecular target: α1 subunit-containing GABAA receptors (Homo sapiens, UniProt P14867+P18507); parameters: key to Subtype α1: act as partial positive modulators for particular subtype combinations; none: zero efficacy (i.e., antagonism) at other subtypes; settings: cited from earlier work
Chain of α1 subunit-containing GABAA receptors (P14867 28-456): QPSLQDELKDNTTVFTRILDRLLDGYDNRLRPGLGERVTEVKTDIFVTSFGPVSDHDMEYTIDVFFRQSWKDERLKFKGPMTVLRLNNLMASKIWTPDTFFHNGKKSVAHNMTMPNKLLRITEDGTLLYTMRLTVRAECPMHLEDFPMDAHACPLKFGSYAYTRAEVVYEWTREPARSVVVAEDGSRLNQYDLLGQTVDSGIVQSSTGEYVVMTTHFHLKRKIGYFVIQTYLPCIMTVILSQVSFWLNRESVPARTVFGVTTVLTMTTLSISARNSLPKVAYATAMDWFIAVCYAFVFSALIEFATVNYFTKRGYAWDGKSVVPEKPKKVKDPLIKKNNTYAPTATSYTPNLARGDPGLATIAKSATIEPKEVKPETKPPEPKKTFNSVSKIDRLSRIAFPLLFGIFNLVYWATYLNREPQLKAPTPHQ
Chain of α1 subunit-containing GABAA receptors (P18507 40-475): as the sequence (P18507 40-475) above
Chain of α1 subunit-containing GABAA receptors (P28472 26-473 partner): as the sequence (P28472 26-473 partner) above

[4] = molecular target: α2 subunit-containing GABAA receptors (Homo sapiens, UniProt P18507+P47869); parameters: key: act as partial positive modulators for particular subtype combinations; none: zero efficacy (i.e., antagonism) at other subtypes; settings: cited from earlier work
Chain of α2 subunit-containing GABAA receptors (P47869 29-451): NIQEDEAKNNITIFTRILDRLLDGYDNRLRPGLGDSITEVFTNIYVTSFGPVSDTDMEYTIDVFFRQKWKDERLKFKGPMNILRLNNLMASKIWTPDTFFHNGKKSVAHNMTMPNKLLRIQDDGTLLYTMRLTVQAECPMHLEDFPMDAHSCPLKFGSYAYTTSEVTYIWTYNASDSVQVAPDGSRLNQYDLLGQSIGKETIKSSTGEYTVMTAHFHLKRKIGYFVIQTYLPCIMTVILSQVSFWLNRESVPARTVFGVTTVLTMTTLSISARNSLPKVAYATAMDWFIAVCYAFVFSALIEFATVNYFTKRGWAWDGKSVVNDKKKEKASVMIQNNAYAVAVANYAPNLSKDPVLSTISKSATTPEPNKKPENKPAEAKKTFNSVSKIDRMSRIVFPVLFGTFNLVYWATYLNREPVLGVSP
Chain of α2 subunit-containing GABAA receptors (P18507 40-475): as the sequence (P18507 40-475) above
Chain of α2 subunit-containing GABAA receptors (P28472 26-473 partner): as the sequence (P28472 26-473 partner) above

[5] = molecular target: α3 subunit-containing GABAA receptors (Homo sapiens, UniProt P18507+P34903); parameters: key: act as partial positive modulators for particular subtype combinations; none: zero efficacy (i.e., antagonism) at other subtypes; settings: cited from earlier work
Chain of α3 subunit-containing GABAA receptors (P34903 29-492): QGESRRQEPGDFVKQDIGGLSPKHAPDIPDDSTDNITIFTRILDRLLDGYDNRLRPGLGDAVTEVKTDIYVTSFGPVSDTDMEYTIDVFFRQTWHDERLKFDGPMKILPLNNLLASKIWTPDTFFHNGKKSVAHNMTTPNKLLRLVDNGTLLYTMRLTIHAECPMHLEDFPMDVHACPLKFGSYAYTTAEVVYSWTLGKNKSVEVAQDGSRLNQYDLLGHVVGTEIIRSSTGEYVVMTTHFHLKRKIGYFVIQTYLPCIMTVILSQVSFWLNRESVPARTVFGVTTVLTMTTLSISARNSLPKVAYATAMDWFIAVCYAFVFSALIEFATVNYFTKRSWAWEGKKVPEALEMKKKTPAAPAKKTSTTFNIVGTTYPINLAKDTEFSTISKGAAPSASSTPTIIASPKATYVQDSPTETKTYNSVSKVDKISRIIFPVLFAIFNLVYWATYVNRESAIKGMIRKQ
Chain of α3 subunit-containing GABAA receptors (P18507 40-475): as the sequence (P18507 40-475) above
Chain of α3 subunit-containing GABAA receptors (P28472 26-473 partner): as the sequence (P28472 26-473 partner) above

[6] = system: patients with Generalized Anxiety Disorder; settings: cited from earlier work
rats = test: Blockade of diazepam suppression of responding (30 min pretreatment); format: in vivo, rat; settings: ligand 3.0 mg/kg; diazepam 30 min pretreatment; FIG. 12A; N=5
Method: This profile is very similar to that of TPA023B despite the structural differences. […] For both compounds, we chose 3.0 mg/kg, i.p., in rats based on published literature or pilot studies in our laboratories.
FIGS. 12A and 12B illustrate the results of acute dependency testing using these compounds.

[7] = rhesus monkey, cited from earlier work
GABAA receptor subtypes = settings: cited from earlier work
Sprague-Dawley rats = test: Precipitated withdrawal/acute dependence: responding 60 min after diazepam bolus; format: in vivo, rat; settings: ligand 3.0 mg/kg; FIG. 12B; N=5
Method: Acute dependence can occur after single exposures to the benzodiazepine chlordiazepoxide, but not to an α2/3GABAA selective ligand (Fischer et al. 2013, Psychopharmacology 227: 347-54). Here, the extent to which TPA023B can precipitate withdrawal in rats following a single, large bolus dose of diazepam was studied. […] Once rates of responding were stable, doses of diazepam, the non-selective benzodiazepine antagonist flumazenil, and TPA023B were administered prior to the session.

rhesus monkeys [8] = test: i.v. self-administration under progressive-ratio (PR) schedule; format: in vivo, rhesus monkey; settings: dose at which self-administration was highest; n=4 monkeys; FIG. 5
Text: The abuse potential of novel compounds can be determined by use of i.v. self-administration procedures, in which a compound is available to a subject previously trained to press a lever to obtain a known drug of abuse. Our standard procedure is to use a progressive-ratio (PR) schedule, in which an increasing number of responses are required to obtain an injection. The last response requirement completed is referred to as a “break point” (BP) and represents the maximum amount of “work” a subject will perform to obtain the drug or compound.
In the present example, eight rhesus monkeys (4 females, 4 males) were trained to respond under a schedule of i.v. midazolam (a conventional benzodiazepine) injection at 0.03 mg/kg/injection. Once self-administration had been acquired (>20 injections/daily 2-hour sessions), monkeys were trained under the PR schedule as described by Shinday et al. (2013). Daily experimental sessions consisted of five components, each made up of four trials (i.e., 20 trials total). […]
In order to directly compare lorazepam and TPA023B self-administration, we here analyzed BP values at the doses that maintained the highest level of mean injections/session and compared these BP values with those obtained after vehicle tests.

rhesus monkeys [9] = settings: visual recognition memory and spatial working memory; cited from earlier work

Structure (SMILES)	Pharmacokinetics [1]	Subtype α5 [2]	Subtype α1 [3]	Subtype α2 [4]	Subtype α3 [5]	further results
CCn1ncnc1COc1nn2c(-c3ccccc3F)nnc2cc1C(C)(C)C [TPA023]	good	none	none	partial	partial	efficacy at α1GABAA subtype [3]: no efficacy; adverse effects leading to halt in Phase II ([6]; human, in vivo): cataract development; anxiolysis in patients with Generalized Anxiety Disorder ([6]; post hoc analyses, three clinical trials): significant anxiolysis
CC(C)(O)c1ccn2c(-c3ccc(F)c(-c4cccnc4)c3)cnc2n1 [MRK-623]	poor	none	none	partial	partial	ability of diazepam to suppress rates of responding (rats): blocked; bioavailability (in words) ([7]; in vivo): fair; half-life [7]: 30 min; functional/subtype selectivity (GABAA receptor subtypes): α2/3GABAA subtype selective; rates of responding after 60-min pretreatment of diazepam (acute dependence) (Sprague-Dawley rats): neither L-838,417 nor MRK-623 altered rates of responding
O=C1Nc2ccc(Cl)cc2C(c2ccccc2Cl)=NC1O (centres unmarked) [lorazepam, reference compound]						median break point (BP), highest response requirement (rhesus monkeys [8]): 320
Cc1nnc2n1-c1ccc(Cl)cc1C(c1ccccc1Cl)=NC2 [triazolam, reference compound]						accuracy in DMTS and SOSS tasks (rhesus monkeys [9]): significantly reduced accuracy
